Experimental data: patent publication US9593123B2, “Triazolo[4,5-D]pyrimidine derivatives” (Hoffmann-La Roche Inc., priority 2013, dated 2017)

Key:
[1] = biological target: human CB1 receptor (Homo sapiens (Human), UniProt P21554); test: cAMP assay, CHO cells expressing human CB1 receptors; type: cell-based; settings: functional cAMP assay, read-out: CB1 hcAMP EC50
Method: (§1) CHO cells expressing human CB1 or CB2 receptors are seeded 17-24 hours prior to the experiment 50.000 cells per well in a black 96 well plate with flat clear bottom (Corning Costar #3904) in DMEM (Invitrogen No. 31331), 1×HT supplement, with 10% fetal calf serum and incubated at 5% CO2 and 37° C. in a humidified incubator. The growth medium was exchanged with Krebs Ringer Bicarbonate buffer with 1 mM IBMX and incubated at 30° C. for 30 min. Compounds were added to a final assay volume of 100 μl and incubated for 30 min at 30° C. Using the cAMP-Nano-TRF detection kit the assay (Roche Diagnostics) was stopped by the addition of 50 μl lysis reagent (Tris, NaCl, 1.5% Triton X100, 2.5% NP40, 10% NaN3) and 50 μl detection solutions (20 μM mAb Alexa700-cAMP 1:1, and 48 μM Ruthenium-2-AHA-cAMP) and shaken for 2 h at room temperature. The time-resolved energy transfer is measured by a TRF reader (Evotec Technologies GmbH), equipped with a ND:YAG laser as excitation source. The plate is measured twice with the excitation at 355 nm and at the emission with a delay of 100 ns and a gate of 100 ns, total exposure time 10 s at 730 (bandwidth 30 nm) or 645 nm (bandwidth 75 nm), respectively. The FRET signal is calculated as follows: FRET=T730-Alexa730-P(T645-B645) with P=Ru730-B730/Ru645-B645, where T730 is the test well measured at 730 nM, T645 is the test well measured at 645 nm, B730 and B645 are the buffer controls at 730 nm and 645 nm, respectively. cAMP content is determined from the function of a standard curve spanning from 10 μM to 0.13 nM cAMP.
(§2) EC50 values were determined using Activity Base analysis (ID Business Solution, Limited). The EC50 values for a wide range of cannabinoid agonists generated from this assay were in agreement with the values published in the scientific literature.

[2] = biological target: human CB2 receptor (Homo sapiens (Human), UniProt P34972); test: cAMP assay, CHO cells expressing human CB2 receptors; type: cell-based; settings: functional cAMP assay, read-out: CB2 hcAMP EC50
Method: as §1, §2

Sequence of human CB2 receptor (P34972 whole entry): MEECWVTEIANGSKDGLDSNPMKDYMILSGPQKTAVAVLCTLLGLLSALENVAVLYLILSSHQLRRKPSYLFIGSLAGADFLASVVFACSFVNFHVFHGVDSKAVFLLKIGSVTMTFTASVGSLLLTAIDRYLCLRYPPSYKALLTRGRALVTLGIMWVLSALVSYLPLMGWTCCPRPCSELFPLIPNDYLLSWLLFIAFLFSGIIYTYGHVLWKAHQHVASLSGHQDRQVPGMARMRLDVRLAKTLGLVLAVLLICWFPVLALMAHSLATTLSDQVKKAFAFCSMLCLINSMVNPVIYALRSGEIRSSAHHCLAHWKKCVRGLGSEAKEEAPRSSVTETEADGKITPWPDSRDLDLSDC
Sequence of human CB1 receptor (P21554 whole entry): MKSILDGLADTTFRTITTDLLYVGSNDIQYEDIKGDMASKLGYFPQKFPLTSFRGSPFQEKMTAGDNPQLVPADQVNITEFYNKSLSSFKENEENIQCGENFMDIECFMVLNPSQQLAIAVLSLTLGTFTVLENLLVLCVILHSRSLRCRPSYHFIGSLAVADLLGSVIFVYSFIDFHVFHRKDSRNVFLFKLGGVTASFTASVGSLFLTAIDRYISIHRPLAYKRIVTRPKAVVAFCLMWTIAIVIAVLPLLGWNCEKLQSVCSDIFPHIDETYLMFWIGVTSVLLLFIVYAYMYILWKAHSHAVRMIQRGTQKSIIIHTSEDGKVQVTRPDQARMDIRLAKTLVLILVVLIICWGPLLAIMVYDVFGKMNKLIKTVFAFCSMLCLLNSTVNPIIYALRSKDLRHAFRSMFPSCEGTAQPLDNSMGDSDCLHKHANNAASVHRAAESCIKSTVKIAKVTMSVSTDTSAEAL

With `Cn1nnnc1Cn1nnc2c(N3CC[C@H](O)C3)nc(NC(C)(C)C)nc21` [Example 29, (3S)-1-[5-(tert-Butylamino)-3-[(1-methyltetrazol-5-yl)methyl]triazolo[4,5-d]pyrimidin-7-yl]pyrrolidin-3-ol] the EC50 [1] was greater than 10 µM and the EC50 [2] was 48.6 nM.
With `COc1ccc(Cn2nnc3c(N4CC[C@](C)(O)C4)nc(NC(C)(C)C)nc32)cc1` [Example 30, (3S)-1-[5-(tert-Butylamino)-3-[(4-methoxyphenyl)methyl]triazolo[4,5-d]pyrimidin-7-yl]-3-methylpyrrolidin-3-ol] the EC50 [1] was greater than 10 µM and the EC50 [2] was 89.9 nM.
In the case of `COc1ccc(Cn2nnc3c(N4CC[C@@](C)(O)C4)nc(NC(C)(C)C)nc32)cc1` [Example 31, (3R)-1-[5-(tert-Butylamino)-3-[(4-methoxyphenyl)methyl]triazolo[4,5-d]pyrimidin-7-yl]-3-methylpyrrolidin-3-ol], the EC50 [1] is reported as greater than 10 µM and the EC50 [2] is reported as 56 nM.
`C[C@]1(O)CCN(c2nc(N3CCOCC3)nc3c2nnn3Cc2ccccc2Cl)C1` [Example 32, (3S)-1-[3-[(2-Chlorophenyl)methyl]-5-morpholino-triazolo[4,5-d]pyrimidin-7-yl]-3-methyl-pyrrolidin-3-ol] was tested, and the EC50 [1] was greater than 10 µM and the EC50 [2] was 9.6 nM.
Compound `C[C@]1(O)CCN(c2nc(N3CCOCC3)nc3c2nnn3Cc2ccccc2C(F)(F)F)C1` [Example 33, (3S)-3-Methyl-1-[5-morpholin-4-yl-3-[[2-(trifluoromethyl)phenyl]methyl]triazolo[4,5-d]pyrimidin-7-yl]pyrrolidin-3-ol] has an EC50 [1] greater than 10 µM and an EC50 [2] of 7.2 nM.
For `C[C@]1(O)CCN(c2nc(N3CCOCC3)nc3c2nnn3Cc2ncccc2Cl)C1` [Example 34, (3S)-1-[3-[(3-chloropyridin-2-yl)methyl]-5-morpholin-4-yltriazolo[4,5-d]pyrimidin-7-yl]-3-methylpyrrolidin-3-ol], the EC50 [1] was greater than 10 µM and the EC50 [2] was 45.3 nM.
With `Cc1noc(Cn2nnc3c(N4CC[C@](C)(O)C4)nc(N4CCOCC4)nc32)n1` [Example 35, (3S)-3-Methyl-1-[3-[(3-methyl-1,2,4-oxadiazol-5-yl)methyl]-5-morpholin-4-yltriazolo[4,5-d]pyrimidin-7-yl]pyrrolidin-3-ol] the EC50 [1] was greater than 10 µM and the EC50 [2] was 10.8 nM.
Compound `C[C@@]1(O)CCN(c2nc(N3CCOCC3)nc3c2nnn3Cc2ccccc2Cl)C1` [Example 36, (3R)-1-[3-[(2-Chlorophenyl)methyl]-5-morpholin-4-yltriazolo[4,5-d]pyrimidin-7-yl]-3-methylpyrrolidin-3-ol] has an EC50 [1] greater than 10 µM and an EC50 [2] of 220 nM.
Work on `C[C@@]1(O)CCN(c2nc(N3CCOCC3)nc3c2nnn3Cc2ccccc2C(F)(F)F)C1` [Example 37, (3R)-3-Methyl-1-[5-morpholin-4-yl-3-[[2-(trifluoromethyl)phenyl]methyl]triazolo[4,5-d]pyrimidin-7-yl]pyrrolidin-3-ol] yielded an EC50 [1] greater than 10 µM and an EC50 [2] of 23.6 nM.
With `C[C@@]1(O)CCN(c2nc(N3CCOCC3)nc3c2nnn3Cc2ccccc2S(C)(=O)=O)C1` [Example 38, (3R)-3-Methyl-1-[3-[(2-methylsulfonylphenyl)methyl]-5-morpholin-4-yltriazolo[4,5-d]pyrimidin-7-yl]pyrrolidin-3-ol] the EC50 [1] was greater than 10 µM and the EC50 [2] was 312 nM.
Compound `Cc1noc(Cn2nnc3c(N4CC[C@@](C)(O)C4)nc(N4CCOCC4)nc32)n1` [Example 39, (3R)-3-Methyl-1-[3-[(3-methyl-1,2,4-oxadiazol-5-yl)methyl]-5-morpholin-4-yltriazolo[4,5-d]pyrimidin-7-yl]pyrrolidin-3-ol] has an EC50 [1] greater than 10 µM and an EC50 [2] of 301 nM.
For `FC(F)(F)COc1nc(N2CCC(F)(F)C2)c2nnn(Cc3ccccc3Cl)c2n1` [Example 40, 3-[(2-Chlorophenyl)methyl]-7-(3,3-difluoropyrrolidin-1-yl)-5-(2,2,2-trifluoroethoxy) triazolo[4,5-d]pyrimidine], the EC50 [1] was greater than 10 µM and the EC50 [2] was 6.1 nM.
Work on `CC(Oc1nc(N2CCC(F)(F)C2)c2nnn(Cc3ccccc3Cl)c2n1)C(F)(F)F` (centres unmarked) [Example 41, 3-[(2-Chlorophenyl)methyl]-7-(3,3-difluoropyrrolidin-1-yl)-5-(1,1,1-trifluoropropan-2-yloxy)triazolo[4,5-d]pyrimidine] yielded an EC50 [1] greater than 10 µM and an EC50 [2] of 8.5 nM.
`C[C@H](Oc1nc(N2CCC(F)(F)C2)c2nnn(Cc3ccccc3Cl)c2n1)C(F)(F)F` [Example 42, 3-[(2-Chlorophenyl)methyl]-7-(3,3-difluoropyrrolidin-1-yl)-5-[(2S)-1,1,1-trifluoropropan-2-yl]oxytriazolo[4,5-d]pyrimidine] was tested, and the EC50 [1] was greater than 10 µM and the EC50 [2] was 3.3 nM.
In the case of `FC(F)COc1nc(N2CCC(F)(F)C2)c2nnn(Cc3ccccc3Cl)c2n1` [Example 43, 3-[(2-Chlorophenyl)methyl]-5-(2,2-difluoroethoxy)-7-(3,3-difluoropyrrolidin-1-yl)triazolo[4,5-d]pyrimidine], the EC50 [1] is reported as greater than 10 µM and the EC50 [2] is reported as 26.4 nM.
`CCOc1nc(N2CCC(F)(F)C2)c2nnn(Cc3ccccc3Cl)c2n1` [Example 44, 3-[(2-Chlorophenyl)methyl]-7-(3,3-difluoropyrrolidin-1-yl)-5-ethoxytriazolo[4,5-d]pyrimidine] gave an EC50 [1] greater than 10 µM and an EC50 [2] of 4 nM.
Compound `CCCCOc1nc(N2CCC(F)(F)C2)c2nnn(Cc3ccccc3Cl)c2n1` [Example 45, 5-Butoxy-3-[(2-chlorophenyl)methyl]-7-(3,3-difluoropyrrolidin-1-yl)triazolo[4,5-d]pyrimidine] has an EC50 [1] greater than 10 µM and an EC50 [2] of 1.2 nM.
`FCCOc1nc(N2CCC(F)(F)C2)c2nnn(Cc3ccccc3Cl)c2n1` [Example 46, 3-[(2-Chlorophenyl)methyl]-7-(3,3-difluoropyrrolidin-1-yl)-5-(2-fluoroethoxy) triazolo[4,5-d]pyrimidine] showed an EC50 [1] greater than 10 µM and an EC50 [2] of 5.3 nM.
Work on `FC1(F)CCN(c2nc(OCC3CC3)nc3c2nnn3Cc2ccccc2Cl)C1` [Example 47, 3-[(2-Chlorophenyl)methyl]-5-(cyclopropylmethoxy)-7-(3,3-difluoropyrrolidin-1-yl)triazolo[4,5-d]pyrimidine] yielded an EC50 [1] greater than 10 µM and an EC50 [2] of 3.6 nM.
`FC1(F)CCN(c2nc(OC3CCC3)nc3c2nnn3Cc2ccccc2Cl)C1` [Example 48, 3-[(2-Chlorophenyl)methyl]-5-cyclobutyloxy-7-(3,3-difluoropyrrolidin-1-yl)triazolo[4,5-d]pyrimidine] was tested, and the EC50 [1] was greater than 10 µM and the EC50 [2] was 1.7 nM.
Work on `FC1(F)CCN(c2nc(OC3COC3)nc3c2nnn3Cc2ccccc2Cl)C1` [Example 49, 3-[(2-Chlorophenyl)methyl]-7-(3,3-difluoropyrrolidin-1-yl)-5-(oxetan-3-yloxy)triazolo [4,5-d]pyrimidine] yielded an EC50 [1] greater than 10 µM and an EC50 [2] of 21.9 nM.
With `CC1(COc2nc(N3CCC(F)(F)C3)c3nnn(Cc4ccccc4Cl)c3n2)COC1` [Example 50, 3-[(2-Chlorophenyl)methyl]-7-(3,3-difluoropyrrolidin-1-yl)-5-[(3-methyloxetan-3-yl)methoxy]triazolo[4,5-d]pyrimidine] the EC50 [1] was greater than 10 µM and the EC50 [2] was 2.8 nM.
`C[C@@H](Oc1nc(N2CCC(F)(F)C2)c2nnn(Cc3ccccc3Cl)c2n1)C(F)(F)F` [Example 51, 3-[(2-Chlorophenyl)methyl]-7-(3,3-difluoropyrrolidin-1-yl)-5-[(2R)-1,1,1-trifluoropropan-2-yl]oxytriazolo[4,5-d]pyrimidine] showed an EC50 [1] greater than 10 µM and an EC50 [2] of 2.1 nM.
Compound `CC(C)(C)COc1nc(N2CCC(F)(F)C2)c2nnn(Cc3ccccc3Cl)c2n1` [Example 52, 3-[(2-Chlorophenyl)methyl]-7-(3,3-difluoropyrrolidin-1-yl)-5-(2,2-dimethylpropoxy) triazolo[4,5-d]pyrimidine] has an EC50 [1] greater than 10 µM and an EC50 [2] of 0.8 nM.
Compound `CC(F)(F)COc1nc(N2CCC(F)(F)C2)c2nnn(Cc3ccccc3Cl)c2n1` [Example 53, 3-[(2-Chlorophenyl)methyl]-5-(2,2-difluoropropoxy)-7-(3,3-difluoropyrrolidin-1-yl)triazolo[4,5-d]pyrimidine] has an EC50 [1] greater than 10 µM and an EC50 [2] of 5.5 nM.
`CC(C)COc1nc(N2CCC(F)(F)C2)c2nnn(Cc3ccccc3Cl)c2n1` [Example 54, 3-[(2-Chlorophenyl)methyl]-7-(3,3-difluoropyrrolidin-1-yl)-5-(2-methylpropoxy) triazolo[4,5-d]pyrimidine] showed an EC50 [1] greater than 10 µM and an EC50 [2] of 1.2 nM.
`CC(C)Oc1nc(N2CCC(F)(F)C2)c2nnn(Cc3ccccc3Cl)c2n1` [Example 55, 3-[(2-Chlorophenyl)methyl]-7-(3,3-difluoropyrrolidin-1-yl)-5-propan-2-yloxytriazolo [4,5-d]pyrimidine] showed an EC50 [1] greater than 10 µM and an EC50 [2] of 1.2 nM.
Compound `C#CCOc1nc(N2CCC(F)(F)C2)c2nnn(Cc3ccccc3Cl)c2n1` [Example 56, 3-[(2-Chlorophenyl)methyl]-7-(3,3-difluoropyrrolidin-1-yl)-5-prop-2-ynoxytriazolo [4,5-d]pyrimidine] has an EC50 [1] greater than 10 µM and an EC50 [2] of 11 nM.
